Eleven molecules from patent US9096597B2 (priority 2007, dated 2015) can be followed below.

Counter-ions that a name gives are not always drawn. Like-named read-outs stand apart in the source and are kept apart here.

The subject of assay [1] is Machupo pseudotyped virus. The assay is described as follows: organism not typed. As to conditions: read-out: Activity (EC50 in μM vs. pseudotyped virus) Machupo. The class given is cell-based.
The test system of assay [2] is Lassa GP-pseudotyped-virus. The assay is described as follows: microbe, parasite or virus in culture. It counts as cell-based, Lassa fever virus.
The test system of a further assay is VSVg pseudotyped virus. The assay is described as follows: microbe, parasite or virus in culture. The class given is cell-based, vesicular stomatitis virus (VSV). As to conditions: Vesicular stomatitis virus, read-out: Activity (EC50 in μM vs. pseudotyped virus) VSVg.
In the next assay the test system is Junín pseudotyped virus. The experiment in a line: organism not typed. It counts as cell-based. The conditions noted are these: read-out: Activity (EC50 in μM vs. pseudotyped virus) Junín.
A further assay deals with Sabiá pseudotyped virus. The assay is described as follows: organism not typed. The class given is cell-based. The conditions noted are these: read-out: Activity (EC50 in μM vs. pseudotyped virus) Sabiá.
The test system of assay [3] is Guanarito pseudotyped virus. The experiment in a line: organism not typed. The conditions noted are these: read-out: Activity (EC50 in μM vs. pseudotyped virus) Guanarito. It counts as cell-based.
[4] abbreviates: Human immunodeficiency virus 1, read-out: Activity (EC50 in μM vs. pseudotyped virus) Lassa.

For the molecule `CCOc1ccc(-n2cnc3cc(N(Cc4ccc(CC)cc4)C(=O)CCC(=O)O)cnc32)cc1` [Compound 9, N-[3-(4-Ethoxy-phenyl)-3H-imidazo[4,5-b]pyridin-6-yl]-N-(4-ethyl-benzyl)-succinamic acid], the 50% effective concentration (EC50) in assay [1] and in assay [2] (setting [4]) was 1 to 50 µM each time.
Consider `CCOc1ccc(-n2cnc3cc(NCc4ccc(C)cn4)cnc32)cc1` [Compound 3, [3-(4-Ethoxy-phenyl)-3H-imidazo[4,5-b]pyridin-6-yl]-(5-methyl-pyridin-2-ylmethyl)-amine], for which the 50% effective concentration (EC50) in the assay on VSVg pseudotyped virus was greater than 50 µM; in assay [2] (setting [4]), 0.05 to 1 µM.
On to `CCOc1ccc(-n2cnc3cc(N(Cc4ccc(CC)cc4)S(C)(=O)=O)cnc32)cc1` [Compound 10, N-[3-(4-Ethoxy-phenyl)-3H-imidazo[4,5-b]pyridin-6-yl]-N-(4-ethyl-benzyl)-methanesulfonamide], for which the concentration giving a half-maximal response (EC50) in assay [1] and in assay [2] (setting [4]) was 1 to 50 µM throughout.
`CCOc1ccc(-n2cnc3cc(N(Cc4ccc(CC)cc4)C(C)=O)cnc32)cc1` [Compound 6, N-[3-(4-Ethoxy-phenyl)-3H-imidazo[4,5-b]pyridin-6-yl]-N-(4-ethyl-benzyl)-acetamide]: the figures for the EC50 in assay [1] and in assay [2] (setting [4]) were 1 to 50 µM and 0.05 to 1 µM, respectively.
On to `CCOc1ccc(-n2cnc3cc(N(Cc4ccc(CC)cc4)S(=O)(=O)c4ccccc4)cnc32)cc1` [Compound 11, N-[3-(4-Ethoxy-phenyl)-3H-imidazo[4,5-b]pyridin-6-yl]-N-(4-ethyl-benzyl)-benzenesulfonamide], for which the EC50 in assay [1] and in assay [2] (setting [4]) was 0.05 to 1 µM each time.
In the case of `CCOc1ccc(-n2cnc3cc(N(Cc4ccc(CC)cc4)C(=O)CN(C)C)cnc32)cc1` [Compound 8, 2-Dimethylamino-N-[3-(4-ethoxy-phenyl)-3H-imidazo[4,5-b]pyridin-6-yl]-N-(4-ethyl-benzyl)-acetamide hydrochloride], the concentration for a half-maximal effect (EC50) in assay [1] and in assay [2] (setting [4]) was 0.05 to 1 µM throughout.
On to `CCOc1ccc(-n2cnc3cc(NCc4ccc(CC)cc4)cnc32)cc1` [Compound 1, [3-(4-Ethoxy-phenyl)-3H-imidazo[4,5-b]pyridin-6-yl]-(4-ethyl-benzyl)-amine], for which the EC50 was 1 to 50 µM in the assay on VSVg pseudotyped virus; less than 0.05 µM in the assay with Junín pseudotyped virus; less than 0.05 µM in assay [1]; less than 0.05 µM in the assay with Sabiá pseudotyped virus; less than 0.05 µM in assay [3]; 0.00013 µM in assay [2] (Human immunodeficiency virus 1, HEK-293T, read-out: EC50 against Lassa GP-pseudotyped-virus). Besides, the EC50 in assay [2] (setting [4]) is less than 0.05 µM. In assay [2], the “potency against viral entry mediated by the Lassa envelope glycoprotein” value is “significantly increased potency”.
As for `CCOc1ccc(-n2cnc3cc(N(Cc4ccc(CC)cc4)C(=O)c4ccccc4)cnc32)cc1` [Compound 7, N-[3-(4-Ethoxy-phenyl)-3H-imidazo[4,5-b]pyridin-6-yl]-N-(4-ethyl-benzyl)-benzamide], the 50% effective concentration (EC50) in assay [1] and in assay [2] (setting [4]) was 0.05 to 1 µM in each case.
Turning to `CCOc1ccc(-n2nnc3cc(NCc4ccc(CC)cc4)cnc32)cc1` [Compound 12, [3-(4-Ethoxy-phenyl)-3H-[1,2,3]triazolo[4,5-b]pyridin-6-yl]-(4-ethyl-benzyl)-amine], the EC50 is greater than 50 µM in the assay on VSVg pseudotyped virus, 0.05 to 1 µM in assay [1], 0.05 to 1 µM in the assay with Sabiá pseudotyped virus and less than 0.05 µM in assay [2] (setting [4]).
Take `CCOc1ccc(-n2cnc3nc(NCc4ccc(CC)cc4)ccc32)cc1` [Compound 4, [1-(4-Ethoxy-phenyl)-1H-imidazo[4,5-b]pyridin-5-yl]-(4-ethyl-benzyl)-amine]: the EC50 with VSVg pseudotyped virus was greater than 50 µM; in assay [1], 0.05 to 1 µM; in the assay with Sabiá pseudotyped virus, 0.05 to 1 µM; in assay [2] (setting [4]), less than 0.05 µM.
`CCOc1ccc(-n2cnc3cc(NCc4ccc(CC)cc4)cnc32)cn1` [Compound 2, [3-(6-Ethoxy-pyridin-3-yl)-3H-imidazo[4,5-b]pyridin-6-yl]-(4-ethyl-benzyl)-amine]: the concentration for a half-maximal effect (EC50) with VSVg pseudotyped virus was 1 to 50 µM; in assay [2] (setting [4]) it was less than 0.05 µM.
